Measurements: paper PMC9386376, “Discovery of spirooxindole-derived small-molecule compounds as novel HDAC/MDM2 dual inhibitors and investigation of their anticancer activity” (Frontiers in Oncology, 2022)
“Also recorded” adds a separate entry of the source.

Tests used:
[1] = tested on: Ac-H4 in MCF-7 cells; assay: Western blot, acetylation of H4; assay type: cell-based, human; details: MCF-7, 24 h
Protocol: The cells were collected and washed with cold PBS twice, then added the protease and phosphatase inhibitors contained lysis buffer. Total cell lysates were prepared in lysis RIPA buffer (Invitrogen, CA, USA) on ice for 30 min, followed by centrifugation at 12000 rpm for 10 min at 4°C. After collecting supernatant, protein concentration was determined by a BCA protein assay. The total proteins were loaded into the 10%-15% SDS-PAGE gel and separated by sodium dodecyl sulfate polyacrylamide gel electrophoresis (PAGE). After electrophoresis, the protein was transferred to the PVDF membranes and rinsed three times in PBST buffer for 10 min each time, then sealed with 5% BSA Buffer for 1h. The membranes were incubated at 4°C for 24 h with primary antibodies and washed with TBST three times. Then incubated at room temperature for 2 h with secondary antibodies (1:10,000). The incubated PVDF membranes were taken out and rinsed with TBST three times. The protein bands were visualized through enhanced chemiluminescence (ECL) WB substrate (Millipore, MA, USA) and analyzed by ChemiScope. The antibodies including p53, MDM2, H4, and GAPDH were purchased from Abcam (Cambridge, MA, USA).

[2] = molecular target: T1, GST-tagged MDM2 (Homo sapiens, UniProt Q00987); assay: HTRF enzyme inhibition assay, MDM2; assay type: biochemical; details: compound at 1 μM
T1 construct: purchased Cisbio Co. Ltd

[3] = molecular target: T2, HDAC8 (Homo sapiens, UniProt Q9BY41); assay: HDAC isoform selectivity, HDAC8; assay type: biochemical; details: HDAC subtype panel
T2 sequence (Q9BY41 1-377): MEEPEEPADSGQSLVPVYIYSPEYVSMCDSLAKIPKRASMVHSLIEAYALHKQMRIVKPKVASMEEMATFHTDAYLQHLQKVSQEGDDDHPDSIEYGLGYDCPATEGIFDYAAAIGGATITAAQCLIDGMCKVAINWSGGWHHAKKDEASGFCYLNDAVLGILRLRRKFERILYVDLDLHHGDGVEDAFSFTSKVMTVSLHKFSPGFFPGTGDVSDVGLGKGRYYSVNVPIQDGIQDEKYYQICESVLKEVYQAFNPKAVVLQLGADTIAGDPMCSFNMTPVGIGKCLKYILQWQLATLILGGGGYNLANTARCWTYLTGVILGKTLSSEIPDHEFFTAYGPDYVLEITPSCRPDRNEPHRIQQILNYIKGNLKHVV

[4] = molecular target: HDAC9 (Homo sapiens, UniProt Q9UKV0); assay: HDAC isoform selectivity, HDAC9; assay type: biochemical; details: HDAC subtype panel
HDAC9, sequence (Q9UKV0 whole entry, canonical isoform): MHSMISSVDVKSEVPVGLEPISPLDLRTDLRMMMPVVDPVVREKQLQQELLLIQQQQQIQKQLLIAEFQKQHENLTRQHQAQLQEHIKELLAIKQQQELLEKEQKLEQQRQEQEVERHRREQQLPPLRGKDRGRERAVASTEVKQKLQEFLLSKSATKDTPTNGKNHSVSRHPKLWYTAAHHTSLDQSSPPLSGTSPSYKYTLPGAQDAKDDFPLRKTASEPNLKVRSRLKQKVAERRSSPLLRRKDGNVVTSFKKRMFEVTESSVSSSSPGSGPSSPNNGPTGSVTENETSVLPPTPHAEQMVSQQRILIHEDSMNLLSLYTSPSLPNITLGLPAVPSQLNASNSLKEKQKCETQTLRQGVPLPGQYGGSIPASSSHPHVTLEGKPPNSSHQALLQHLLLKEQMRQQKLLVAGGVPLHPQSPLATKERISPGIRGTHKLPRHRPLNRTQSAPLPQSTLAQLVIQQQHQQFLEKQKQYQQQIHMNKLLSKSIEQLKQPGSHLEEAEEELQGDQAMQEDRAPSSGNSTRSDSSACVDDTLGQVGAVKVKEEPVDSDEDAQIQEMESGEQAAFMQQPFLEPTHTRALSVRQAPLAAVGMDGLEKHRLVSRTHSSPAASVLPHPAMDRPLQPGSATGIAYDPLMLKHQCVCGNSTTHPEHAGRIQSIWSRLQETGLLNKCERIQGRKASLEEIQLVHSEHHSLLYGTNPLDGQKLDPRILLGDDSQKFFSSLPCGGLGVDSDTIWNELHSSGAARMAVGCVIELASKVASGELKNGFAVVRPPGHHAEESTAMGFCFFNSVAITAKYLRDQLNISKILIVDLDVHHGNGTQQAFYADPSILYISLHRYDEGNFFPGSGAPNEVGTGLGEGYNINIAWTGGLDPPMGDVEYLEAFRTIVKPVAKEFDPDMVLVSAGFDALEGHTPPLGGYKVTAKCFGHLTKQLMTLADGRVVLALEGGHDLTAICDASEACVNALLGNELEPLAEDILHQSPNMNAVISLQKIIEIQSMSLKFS

T1 sequence (Q00987 whole entry): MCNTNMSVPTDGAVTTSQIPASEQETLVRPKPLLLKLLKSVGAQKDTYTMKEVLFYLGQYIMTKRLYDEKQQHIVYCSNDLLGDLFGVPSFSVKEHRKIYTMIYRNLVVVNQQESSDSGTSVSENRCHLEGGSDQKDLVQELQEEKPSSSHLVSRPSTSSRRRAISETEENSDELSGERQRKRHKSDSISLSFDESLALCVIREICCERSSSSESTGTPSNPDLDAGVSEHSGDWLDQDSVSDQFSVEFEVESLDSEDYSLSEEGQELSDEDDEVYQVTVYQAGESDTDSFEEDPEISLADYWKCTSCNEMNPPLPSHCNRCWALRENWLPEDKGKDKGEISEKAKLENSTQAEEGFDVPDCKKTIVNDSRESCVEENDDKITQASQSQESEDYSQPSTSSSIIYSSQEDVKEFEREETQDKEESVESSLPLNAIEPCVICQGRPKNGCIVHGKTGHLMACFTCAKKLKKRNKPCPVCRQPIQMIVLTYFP

Question: For `O=C(CCCCCCC(=O)N1CCC(C(=O)Nc2ccc([C@@H]3[C@H]4CSCN4[C@]4(C(=O)Nc5cc(Cl)ccc54)[C@H]3C(=O)c3ccccc3)cc2)CC1)NO` [compound 11b, N-(4-((3R,6'S,7'R,7a'S)-6'-benzoyl-6-chloro-2-oxo-1',6',7',7a'-tetrahydro-3'H-spiro[indoline-3,5'-pyrrolo[1,2-c]thiazol]-7'-yl)phenyl)-1-(8-(hydroxyamino)-8-oxooctanoyl)piperidine-4-carboxamide], which “acetylation level of H4 (Ac-H4, western blot)” value [1] is on record?
Answer: up-regulating the expression of p53 and Ac-H4; also recorded: increased the expression of p53 and Ac-H4; also recorded: increased acetylation level of H4

Question: What about the inhibition at 1 µM [2] of the same molecule?
Answer: 68%

Question: What about the IC50 [3] of the same molecule?
Answer: 313 ± 23 nM

Question: And the IC50 [4]?
Answer: > 10000 nM
